Results reported in ChEMBL document CHEMBL1157827, “The synthesis and biological evaluation of quinolyl-piperazinyl piperidines as potent serotonin 5-HT1A antagonists” (J Med Chem, 2010).
pIC50, pKi: −log10 of the molar value.

Key:
[1] = target: T1, 5-hydroxytryptamine receptor 1A (Homo sapiens, UniProt P08908); assay: biochemical
T1 sequence (P08908 whole entry): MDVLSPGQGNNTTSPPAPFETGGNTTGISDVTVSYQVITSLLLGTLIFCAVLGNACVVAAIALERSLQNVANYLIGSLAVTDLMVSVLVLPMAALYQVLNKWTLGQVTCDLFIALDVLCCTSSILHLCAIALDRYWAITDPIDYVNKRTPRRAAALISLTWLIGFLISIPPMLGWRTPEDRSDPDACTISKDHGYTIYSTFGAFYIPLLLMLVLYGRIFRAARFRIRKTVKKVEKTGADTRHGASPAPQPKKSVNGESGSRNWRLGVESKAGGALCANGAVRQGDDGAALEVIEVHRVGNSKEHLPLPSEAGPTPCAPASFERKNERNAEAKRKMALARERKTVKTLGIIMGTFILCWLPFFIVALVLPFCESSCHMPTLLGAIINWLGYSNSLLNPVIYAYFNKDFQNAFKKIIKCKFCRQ
Description: Displacement of [3H]8-OH-DPAT from human 5HT1A receptor expressed in CHO cells

[2] = in vitro; settings: human, liver microsomes
Description: Half life in human liver microsomes at 1 uM after 20 mins

[3] = in vitro; settings: rat, liver microsomes
Description: Half life in rat liver microsomes at 1 uM after 20 mins

[4] = target: T1, 5-hydroxytryptamine receptor 1A
[5] = Volume of distribution at steady state in Sprague-Dawley rat at 1 mg/kg, iv administered as single dose by LC/MS/MS analysis; type: ADME, organism-based; design: dose 1 mg/kg, route intravenous; settings: in vivo, read-out: Vdss
[6] = Ratio of drug level in brain to plasma in Sprague-Dawley rat at 3 mg/kg, po administered as single dose; type: ADME, organism-based; design: dose 3 mg/kg, route oral; settings: read-out: BPR
[7] = Tmax in Sprague-Dawley rat at 3 mg/kg, po administered as single dose by LC/MS/MS analysis; type: ADME, organism-based; design: dose 3 mg/kg, route oral; settings: in vivo
[8] = Oral bioavailability in Sprague-Dawley rat at 3 mg/kg administered as single dose by LC/MS/MS analysis; type: ADME, organism-based; settings: Sprague-Dawley, in vivo
[9] = test system: Plasma; assay: Drug level in Sprague-Dawley rat plasma at 3 mg/kg, po administered as single dose by LC/MS/MS analysis; type: ADME, organism-based; design: dose 3 mg/kg, route oral; settings: in vivo
[10] = Half life in Sprague-Dawley rat at 3 mg/kg, po administered as single dose by LC/MS/MS analysis; type: ADME, organism-based; design: dose 3 mg/kg, route oral; settings: in vivo
[11] = AUC in Sprague-Dawley rat at 3 mg/kg, po administered as single dose by LC/MS/MS analysis; type: ADME, organism-based, Plasma; design: dose 3 mg/kg, route oral; settings: Sprague-Dawley, plasma
[12] = Cmax in Sprague-Dawley rat at 3 mg/kg, po administered as single dose by LC/MS/MS analysis; type: ADME, organism-based; design: dose 3 mg/kg, route oral; settings: in vivo
[13] = Clearance in Sprague-Dawley rat at 1 mg/kg, iv administered as single dose by LC/MS/MS analysis; type: ADME, organism-based; design: dose 1 mg/kg, route intravenous; settings: in vivo

SMILES | pKi [1] | half-life at 20 min, 1 µM [2] | half-life at 20 min, 1 µM [3] | pIC50 [4] | Vd [5] | Kp [6] | Tmax [7] | bioavailability [8] | concentration [9] | half-life [10] | AUC [11] | Cmax [12] | clearance [13]
COc1cc(N2CCN(C3CCN(c4ccc(F)c5cc(F)cnc45)CC3)CC2)c2ncccc2c1 | 9.33 | 5 min | < 1 min | 7.70 | – | – | – | – | – | – | – | – | –
COc1cc(N2CCN(C3CCN(c4cccc5c(OC)cc(C(F)(F)F)nc45)CC3)CC2)c2ncccc2c1 | 8.68 | 13 min | 4 min | 7.52 | – | – | – | – | – | – | – | – | –
COc1cc(N2CCN(C3CCN(c4cccc5cccnc45)CC3)CC2)c2ncccc2c1 | – | 3 min | 2 min | – | 2.8 L/kg | 2.8 | 60 min | 27% | 0.2 µM | 72 min | 0.36 µg·h/mL | 0.13 µg/mL | 2.32 L/h/kg
COc1cc(N2CCN(C3CCN(c4cccc5c(C)ccnc45)CC3)CC2)c2ncccc2c1 | 9.21 | 2 min | 2 min | 8.85 | – | – | – | – | – | – | – | – | –
COc1cc(N2CCN(C3CCN(c4cc(F)cc5cccnc45)CC3)CC2)c2ncccc2c1 | 8.47 | 4 min | 2 min | 7.33 | – | – | – | – | – | – | – | – | –
COc1cc(N2CCN(C3CCN(c4cccc5ccc(C(F)(F)F)nc45)CC3)CC2)c2ncccc2c1 | 8.74 | 3 min | 2 min | 7.64 | – | – | – | – | – | – | – | – | –
COc1cc(N2CCN(C3CCN(c4cc(Br)cc5cccnc45)CC3)CC2)c2ncccc2c1 | 9.21 | 2 min | 2 min | 8.00 | – | – | – | – | – | – | – | – | –
COc1cc(N2CCN(C3CCN(c4ccc(F)c5cc(C(F)(F)F)cnc45)CC3)CC2)c2ncccc2c1 | 9.06 | 27 min | 9 min | 7.82 | – | – | – | – | – | – | – | – | –
COc1cc(N2CCN(C3CCN(c4cccc5cc(C(F)(F)F)cnc45)CC3)CC2)c2ncccc2c1 | – | 10 min | 4 min | 7.52 | – | – | – | – | – | – | – | – | –
